Laboratory results taken from patent US20100004168A1, “Use of Crystallin For The Modulation of Angiogenesis” (The Johns Hopkins University, priority 2006, published 2010).
Entries after “also recorded” stand apart in the source; their conditions may differ.

How the values were obtained:
[1] = test system: Human astrocyte cell line (SVG); test: VEGF and crystallin immunostaining in cultured astrocytes exposed to 3-nitropropionic acid; type: cell-based; details: 10 μM 3-NP
Experimental: Human astrocyte cell line (SVG) was treated with 10 μM 3-NP, and cells were harvested for immunostaining with antibodies to VEGF and crystallins after 6, 12, and 24 hours. […] Fluorescence with both of the antibodies is increased after 12 hours of exposure to 3-NP in culture. […] Nuclei were counterstained with DAPI.
It has been shown that astrocytes are sensitive to hypoxia, which induces them to release VEGF (Chow et al., 2001; Sandercoe et al., 2003). To determine if astrocytes also express β- and γ-crystallins in response to hypoxia, 3-nitropropionic acid, an irreversible inhibitor of mitochondrial succinate dehydrogenase activity was used (Cavaliere et al., Neurochem Int 38:189-197, 2001). It can be considered a model substance to study hypoxic neuronal damage (Riepe et al., Neurosci Lett 211:9-12, 1996).
The SVG cell line used in this study was derived from human fetal astrocytes transformed with SV40 large T antigen (Major et al., J Biol Chem 278:13512-13519, 1985; Tornatore et al., Cell Transplant 5:145-163, 1996). Cultures of the human fetal astrocyte cell line (SVG) were maintained in Dulbecco's modified Eagle's medium with 2 mM L-glutamine, 10% fetal bovine serum, and streptomycin penicillin-fungizone solutions. Cells grown in 60-mm dishes were treated with 10 μM 3-nitropropionic acid (3NP) for 6, 12, and 24 hours at 37° C. and then fixed with paraformaldehyde (4%) for 15 minutes and blocked with 3% BSA at 4° C. overnight. The fixed cells were processed following standard techniques for immunofluorescence using VEGF and crystallin antibodies as indicated earlier.

[2] = test system: HUVEC (Human umbilical vein endothelial cells); test: Three-dimensional tube formation assay of HUVEC on Matrigel; type: cell-based; details: HUVEC on Matrigel treated with purified proteins (crystallins 0.5 μg/ml), vs controls
Excerpt: In order to better understand the functional role of β/γ-crystallins in vascular remodeling, HUVEC (Human umbilical vein endothelial cells) were established in culture. HUVEC differentiation into tube-like structures in three dimensional Matrigel cultures has been commonly used as a model system to studying angiogenesis (Edelman et al. Exp. Eye Res. 80(2): 249-58, 2005; Xin et al. J. Biol. Chem. 274(13): 9116-21, 1999). After plating HUVEC onto Matrigel, the cells differentiated to form tubes and a capillary-like network at the minimum seeding density of 5×10^3 cells/well (FIGS. 20A-20F). These differentiated cells form tubes and express crystallins (FIGS. 21A and 21B).
The effect of β/γ crystallins and VEGF on HUVEC tube formation and regression was examined. VEGF protein used in this study was purchased from R&D Systems (Minneapolis, Minn.) and the polyclonal antibody was from Santa Cruz Biotechnology (Santa Cruz, Calif.). To prepare the crystallin proteins, lenses dissected from bovine eyes were homogenized in 7 volumes of 0.05M Tris buffer, pH 7.4 containing 0.1M KCl, 10 mM 2-mercaptoethanol and 0.02% NaN3. […] Fractions were collected and peaks analyzed by SDS-PAGE. […]
The cells were exposed to 0.2 μg/ml to 2 μg/ml of crystallin proteins, with a maximum effect at 0.5 μg/ml with negligible cell death as determined by trypan-blue exclusion. […]

[3] = test system: Human Retinal Endothelial Cells (HREC); test: Matrigel tube formation in cultured human retinal endothelial cells; type: cell-based; details: exogenously applied protein, Matrigel pre-coated plates, VEGF omitted from media supplement
Experimental: HREC were cultured in EGM2MV media according to the manufacturer's protocol either in the absence (FIG. 25A), or presence (FIG. 25B) of pre-coated Matrigel matrix (Cambrex). (4× magnification)
FIG. 28 is a graph showing the effect of Exogenous γ-crystallins, VEGF, and PEDF on Tube Length in Cultured Human Retinal Endothelial Cells (HREC): HREC grown on Matrigel-coated tissue culture plates in EGM2MV media with VEGF omitted from the media supplement. Cells were treated with BSA (control), 0.2 μg/ml VEGF, 0.6 μg/ml VEGF, concentrations of […] ranging from 0.5 μg/ml to 1.0 μg/ml, or 0.2 μg/ml PEDF. Average tube length was calculated after measuring all of the tubes formed in three separate optical fields from 7 individual culture dishes.
As reported above, a functionally significant effect of β/γ crystallins on vascular remodeling the effect of β/γ crystallins was established on human umbilical vein endothelial cells (HUVEC) in culture. Because the behavior of vascular endothelial cells varies according to their source and the resident tissue environment, the effect of β/γ crystallins on cultured human retinal endothelial cells (HREC) was subsequently analyzed. […] FIG. 28 quantifies these effects.

[4] = test system: Human Retinal Endothelial Cells (HREC); details: relatively high dose tested (0.2 μg/ml PEDF); cited from earlier work

Q: For O=C(O)CC[N+](=O)[O-] [3-NP, 3-nitropropionic acid], which “VEGF expression (immunostaining)” value ([1]; 6 hours) is on record?
A: induction; also recorded: distinct cytoplasmic staining

Q: What about the “β- and γ-crystallin expression (immunostaining)” value ([1]; 6 hours) of the same molecule?
A: induction; also recorded: distinct cytoplasmic staining

Q: What about the VEGF antibody fluorescence ([1]; 12 hours) of the same molecule?
A: increased

Q: And the γ-crystallin antibody fluorescence ([1]; 12 hours)?
A: increased

Q: What about the cell death ([1]; 24 hours) of the same molecule?
A: most of the cells have died

Q: Which “tube length (tube processes)” value [2] does the source give for VEGF here?
A: longer tubes

Q: What about the “HREC vessel-like tube formation” value [3] of the same molecule?
A: enhanced

B1: PEDF: PEDF added at 0.2 μg/ml to HREC cultures (protein, UniProt P36955 20-418, looked up)
Pigment epithelium-derived …: QNPASPPEEGSPDPDSTGALVEEEDPFFKVPVNKLAAAVSNFGYDLYRVRSSTSPTTNVLLSPLSVATALSALSLGAEQRTESIIHRALYYDLISSPDIHGTYKELLDTVTAPQKNLKSASRIVFEKKLRIKSSFVAPLEKSYGTRPRVLTGNPRLDLQEINNWVQAQMKGKLARSTKEIPDEISILLLGVAHFKGQWVTKFDSRKTSLEDFYLDEERTVRVPMMSDPKAVLRYGLDSDLSCKIAQLPLTGSMSIIFFLPLKVTQNLTLIEESLTSEFIHDIDRELKTVQAVLTVPKLKLSYEGEVTKSLQEMKLQSLFDSPDFSKITGKPIKLTQVEHRAGFEWNEDGAGTTPSPGLQPAHLTFPLDYHLNQPFIFVLRDTDTGALLFIGKILDPRGP
Q: Which tube formation [4] does the source give for B1 here?
A: stimulate tube formation
